Results published in US20080207708A1, “Oxazole and Thiazole Compounds and Their Use in the Treatment of Pge2 Mediated Disorders” (GLAXO GROUP LIMITED, priority 2005, published 2008).
Structures can show the parent of a compound that is named as a salt.

Legend:
EP1 receptors [1] = biological target: T1, EP1 receptors (Homo sapiens, UniProt P34995); assay: Binding assay for the human prostanoid EP1 receptor (competition with [3H]-PGE2); design: expressed in transfected cells; host or cells: CHO-K1 cells, membrane fraction; conditions: [3H]-PGE2 competition; averages of a number of experiments; read-out: pIC50 value, binding assay for the human prostanoid EP1 receptor (converted)
T1 sequence (P34995 1-402): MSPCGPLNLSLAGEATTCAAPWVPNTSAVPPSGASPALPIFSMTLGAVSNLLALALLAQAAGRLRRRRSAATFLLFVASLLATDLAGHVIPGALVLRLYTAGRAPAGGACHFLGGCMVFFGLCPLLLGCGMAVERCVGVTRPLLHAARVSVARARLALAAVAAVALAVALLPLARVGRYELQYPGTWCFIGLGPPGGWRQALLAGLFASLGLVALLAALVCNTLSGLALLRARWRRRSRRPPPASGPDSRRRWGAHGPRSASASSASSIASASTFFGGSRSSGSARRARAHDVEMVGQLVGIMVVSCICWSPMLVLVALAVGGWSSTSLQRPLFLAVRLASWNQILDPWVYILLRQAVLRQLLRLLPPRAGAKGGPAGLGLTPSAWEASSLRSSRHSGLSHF
How it was run: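 Membranes from CHO-K1 cells stably expressing human EP1 incubated with compounds and [3H]-PGE2 (3 nM final) for 30 min at 30° C in MES buffer with EDTA and MgCl2, pH 6. Bound radioactivity measured after filtration; IC50 from nonlinear fit of specific binding inhibition.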

EP1 receptors [2] = biological target: T1, EP1 receptors; assay: human EP1 calcium mobilisation assay (CHO-K1 cells, FLIPR, PGE2); type: cell-based; design: expressed in transfected cells; host or cells: CHO-K1 cells, pCIN vector; conditions: free bases or sodium salts; averages of a number of experiments; read-out: functional pKi value, human EP1 calcium mobilisation assay (converted)
Method: Briefly, the antagonist properties of compounds are assessed by their ability to inhibit the mobilisation of intracellular calcium ([Ca^2+]i) in response to activation of EP1 or EP3 receptors by the natural agonist hormone prostaglandin E2 (PGE2). Increasing concentrations of antagonist reduce the amount of calcium that a given concentration of PGE2 can mobilise. The net effect is to displace the PGE2 concentration-effect curve to higher concentrations of PGE2. The amount of calcium produced is assessed using a calcium-sensitive fluorescent dye such as Fluo-4, AM and a suitable instrument such as a Fluorimetric Imaging Plate Reader (FLIPR). Increasing amounts of [Ca^2+]i produced by receptor activation increase the amount of fluorescence produced by the dye and give rise to an increasing signal. The signal may be detected using the FLIPR instrument and the data generated may be analysed with suitable curve-fitting software.
The human EP1 or EP3 calcium mobilisation assay (hereafter referred to as ‘the calcium assay’) utilises Chinese hamster ovary-K1 (CHO-K1) cells into which a stable (pCIN; BioTechniques 20 (1996): 102-110) vector containing either EP1 or EP3 cDNA has previously been transfected. Cells are cultured in suitable flasks containing culture medium such as DMEM:F-12 supplemented with 10% v/v foetal calf serum, 2 mM L-glutamine, 0.25 mg/ml geneticin, 100 μM flurbiprofen and 10 µg/ml puromycin. For assay, cells are harvested using a proprietary reagent that dislodges cells such as Versene. Cells are re-suspended in a suitable quantity of fresh culture media for introduction into a 384-well plate. Following incubation for 24 hours at 37° C. the culture media is replaced with a medium containing Fluo-4 and the detergent pluronic acid, and a further incubation takes place. Concentrations of compounds are then added to the plate in order to construct concentration-effect curves. This may be performed on the FLIPR in order to assess the agonist properties of the compounds. Concentrations of PGE2 are then added to the plate in order to assess the antagonist properties of the compounds. The data so generated may be analysed by means of a computerised curve-fitting routine. The concentration of compound that elicits a half-maximal inhibition of the calcium mobilisation induced by PGE2 (pIC50) may then be estimated.

Compound: O=C(Cc1ccccc1)Nc1csc(Cc2cc(Cl)ccc2OCc2ccccc2)n1 [Example 130, N-[2-({5-Chloro-2-[(phenylmethyl)oxy]phenyl}methyl)-1,3-thiazol-4-yl]-2-phenylacetamide]
- IC50 (EP1 receptors [1]): ≤ 1000 nM
- Ki (EP1 receptors [2]): < 1000 nM

Compound: Cc1nnc(-c2csc(Cc3cc(Cl)ccc3OCc3ccccc3)n2)[nH]1 [Example 159, 3-[2-({5-Chloro-2-[(phenylmethyl)oxy]phenyl}methyl)-1,3-thiazol-4-yl]-5-methyl-1H-1,2,4-triazole]
- IC50 (EP1 receptors [1]): ≤ 1000 nM
- Ki (EP1 receptors [2]): < 1000 nM

Compound: CC(C)COc1ccc(Cl)cc1Nc1nc(-c2nc3ccc(CN4CCCCC4)cc3[nH]2)cs1 [Example 182, N-{5-Chloro-2-[(2-methylpropyl)oxy]phenyl}-4-[5-(1-piperidinylmethyl)-1H-benzimidazol-2-yl]-1,3-thiazol-2-amine]
- IC50 (EP1 receptors [1]): ≤ 1000 nM
- Ki (EP1 receptors [2]): > 1000 nM

Compound: CC(C)COc1ccc(Cl)cc1Cc1nc(-c2nc3ccc(N4CCN(C)CC4)nc3[nH]2)cs1 [Example 146, 2-[2-({5-chloro-2-[(2-methylpropyl)oxy]phenyl}methyl)-1,3-thiazol-4-yl]-5-(4-methyl-1-piperazinyl)-1H-imidazo[4,5-b]pyridinehydrochloride]
- IC50 (EP1 receptors [1]): ≤ 31.6 nM
- Ki (EP1 receptors [2]): < 1000 nM

Compound: CCC(=O)Nc1csc(Cc2cc(Cl)ccc2OCc2ccccc2)n1 [Example 128]
- IC50 (EP1 receptors [1]): ≤ 1000 nM
- Ki (EP1 receptors [2]): > 1000 nM

Compound: O=C(Nc1ccccc1)c1csc(Cc2cc(Cl)ccc2OCc2ccccc2)n1 [Example 91, 2-({5-Chloro-2-[(phenylmethyl)oxy]phenyl}methyl)-N-phenyl-1,3-thiazole-4-carboxamide]
- IC50 (EP1 receptors [1]): ≤ 1000 nM
- Ki (EP1 receptors [2]): > 1000 nM

Compound: CN(C)Cc1ccc(NC(=O)c2csc(Cc3cc(Cl)ccc3OCc3ccccc3)n2)cc1 [Example 118, 2-({5-Chloro-2-[(phenylmethyl)oxy]phenyl}methyl)-N-{4-[(dimethylamino)methyl]phenyl}-1,3-thiazole-4-carboxamide hydrochloride]
- IC50 (EP1 receptors [1]): ≤ 1000 nM
- Ki (EP1 receptors [2]): > 1000 nM

Compound: CN(C)c1ccc2nc(-c3csc(Cc4cc(Cl)ccc4OCc4ccccc4)n3)[nH]c2n1 [Example 152, 2-[2-({-5-Chloro-2-[(phenylmethyl)oxy]phenyl}methyl)-1,3-thiazol-4-yl]-N,N-dimethyl-1H-imidazo[4,5-b]pyridin-5-amine hydrochloride]
- IC50 (EP1 receptors [1]): ≤ 31.6 nM
- Ki (EP1 receptors [2]): < 1000 nM

Compound: O=C(O)c1cccc2nc(-c3csc(Cc4cc(Cl)ccc4OCc4ccccc4)n3)[nH]c12 [Example 139, 2-[2-({5-Chloro-2-[(phenylmethyl)oxy]phenyl}methyl)-1,3-thiazol-4-yl]-1H-benzimidazole-4-carboxylic acid]
- IC50 (EP1 receptors [1]): ≤ 1000 nM
- Ki (EP1 receptors [2]): < 1000 nM

Compound: CC(C)COc1ccc(Cl)cc1Nc1nc(-c2nc3ccc(CN4CCCC4)cc3[nH]2)cs1 [Example 181, N-{5-Chloro-2-[(2-methylpropyl)oxy]phenyl)-4-[5-(1-pyrrolidinylmethyl)-1H-benzimidazol-2-yl]-1,3-thiazol-2-amine]
- IC50 (EP1 receptors [1]): ≤ 1000 nM
- Ki (EP1 receptors [2]): > 1000 nM

Compound: CC(C)COc1ccc(Cl)cc1Cc1nc(-c2nc3ccc(N4CCCC4)nc3[nH]2)cs1 [Example 145, 2-[2-({5-Chloro-2-[(2-methylpropyl)oxy]phenyl}methyl)-1,3-thiazol-4-yl]-5-(1-pyrrolidinyl)-1H-imidazo[4,5-b]pyridinehydrochloride]
- IC50 (EP1 receptors [1]): ≤ 1000 nM
- Ki (EP1 receptors [2]): < 1000 nM

Compound: CC(C)COc1ccc(Cl)cc1Cc1nc(-c2nc3ccc(CCN4CCCC4)cc3[nH]2)co1 [Example 169, 2-[2-({5-chloro-2-[(2-methylpropyl)oxy]phenyl}methyl)-1,3-oxazol-4-yl]-5-[2-(1-pyrrolidinyl)ethyl]-1H-benzimidazolehydrochloride]
- IC50 (EP1 receptors [1]): ≤ 31.6 nM
- Ki (EP1 receptors [2]): < 1000 nM

Compound: Clc1ccc(OCc2ccccc2)c(Cc2nc(-c3cn4ccccc4n3)cs2)c1 [Example 160, 2-[2-({5-Chloro-2-[(phenylmethyl)oxy]phenyl}methyl)-1,3-thiazol-4-yl]imidazo[1,2-a]pyridine]
- IC50 (EP1 receptors [1]): ≤ 1000 nM
- Ki (EP1 receptors [2]): < 1000 nM

Compound: O=C(Nc1ccc(CN2CCCC2)cc1)c1csc(Cc2cc(Cl)ccc2OCc2ccccc2)n1 [Example 119, 2-({5-Chloro-2-[(phenylmethyl)oxy]phenyl}-methyl)-N-[4-(1-pyrrolidinylmethyl)phenyl]-1,3-thiazole-4-carboxamidehydrochloride]
- IC50 (EP1 receptors [1]): ≤ 1000 nM
- Ki (EP1 receptors [2]): > 1000 nM

Compound: CC(C)COc1ccc(Cl)cc1Nc1nc(-c2nc3ccc(N4CCN(C)CC4)cc3[nH]2)cs1 [Example 165, N-{5-Chloro-2-[(2-methylpropyl)oxy]phenyl}-4-[5-(4-methyl-1-piperazinyl)-1H-benzimidazol-2-yl]-1,3-thiazol-2-aminetrihydrochloride]
- IC50 (EP1 receptors [1]): ≤ 31.6 nM
- Ki (EP1 receptors [2]): > 1000 nM

Compound: CN1CCN(c2ccc3[nH]c(-c4csc(Cc5cc(Cl)ccc5OCc5ccccc5)n4)nc3n2)CC1 [Example 151, 2-[2-({5-Chloro-2-[(phenylmethyl)oxy]phenyl}methyl)-1,3-thiazol-4-yl]-5-(4-methyl-1-piperazinyl)-1H-imidazo[4,5-b]pyridine hydrochloride]
- IC50 (EP1 receptors [1]): ≤ 31.6 nM
- Ki (EP1 receptors [2]): < 1000 nM

Compound: CC(C)CNC(=O)c1csc(Cc2cc(Cl)ccc2OCc2ccccc2)n1 [Example 93, 2-({5-Chloro-2-[(phenylmethyl)oxy]phenyl}methyl)-N-(2-methylpropyl)-1,3-thiazole-4-carboxamide]
- IC50 (EP1 receptors [1]): ≤ 1000 nM
- Ki (EP1 receptors [2]): > 1000 nM

Compound: O=C(O)Cc1coc(-c2cc(Cl)ccc2OCc2ccc(F)cc2F)n1 [Example 79, [2-(5-chloro-2-{[(2,4-difluorophenyl)-methyl]oxy}phenyl)-1,3-oxazol-4-yl]acetic acid]
- IC50 (EP1 receptors [1]): ≤ 1000 nM
- Ki (EP1 receptors [2]): > 1000 nM

Compound: CC(C)COc1ccc(Cl)cc1Cc1nc(-c2nc3cnccc3[nH]2)cs1 [Example 135, 2-[2-({5-Chloro-2-[(2-methyl-propyl)oxy]-phenyl}methyl)-1,3-thiazol-4-yl]-1H-imidazo[4,5-c]pyridinehydrochloride]
- IC50 (EP1 receptors [1]): ≤ 31.6 nM
- Ki (EP1 receptors [2]): ≤ 31.6 nM

Compound: O=C(NCc1ccccc1)c1csc(Cc2cc(Cl)ccc2OCc2ccccc2)n1 [Example 92, 2-({5-Chloro-2-[(phenylmethyl)oxy]phenyl}methyl)-N-(phenylmethyl)-1,3-thiazole-4-carboxamide]
- IC50 (EP1 receptors [1]): ≤ 1000 nM
- Ki (EP1 receptors [2]): > 1000 nM

Compound: CC(C)COc1ccc(Cl)cc1Cc1nc(-c2nc3cc(F)c(F)cc3[nH]2)cs1 [Example 155, 2-[2-({5-Chloro-2-[(2-methylpropyl)oxy]phenyl}methyl)-1,3-thiazol-4-yl]-5,6-difluoro-1H-benzimidazole]
- IC50 (EP1 receptors [1]): ≤ 1000 nM
- Ki (EP1 receptors [2]): < 1000 nM

Compound: O=C(O)Cc1coc(-c2cc(Cl)ccc2OCc2c(F)cc(F)cc2F)n1 [Example 80, [2-(5-chloro-2-{[(2,4,6-trifluorophenyl)methyl]oxy}phenyl)-1,3-oxazol-4-yl]acetic acid]
- IC50 (EP1 receptors [1]): ≤ 1000 nM
- Ki (EP1 receptors [2]): > 1000 nM

Compound: CC(C)COc1ccc(Cl)cc1Cc1nc(-c2nc3ccc(Cl)nc3[nH]2)cs1 [Example 140, 5-Chloro-2-[2-({5-chloro-2-[(2-methylpropyl)oxy]phenyl}methyl)-1,3-thiazol-4-yl]-1H-imidazo[4,5-b]pyridinehydrochloride]
- IC50 (EP1 receptors [1]): ≤ 31.6 nM
- Ki (EP1 receptors [2]): < 1000 nM

Compound: O=C(Nc1csc(Cc2cc(Cl)ccc2OCc2ccccc2)n1)c1ccc(CO)cc1 [Example 112, N-[2-({5-chloro-2-[(phenylmethyl)oxy]phenyl}methyl)-1,3-thiazol-4-yl]-4-(hydroxymethyl)benzamide]
- IC50 (EP1 receptors [1]): ≤ 1000 nM
- Ki (EP1 receptors [2]): > 1000 nM
